Measured values: publication PMC10914731, “Homo-BacPROTAC-induced degradation of ClpC1 as a strategy against drug-resistant mycobacteria” (Nature Communications, 2024)
≈ marks a conversion by molar mass, not a printed value. Where “and” joins values, the source holds several entries; their conditions need not be identical. Equal entries are not always repeated. Where two headings read alike, the source gives them in different places. *1 amine or outer side, *2 acyl side, *3 side chain or, on linkers, in order; H or OH if unused. Where a SMILES comes first, the peptide text is derived from it. [ ]: non-standard residue; d: D form. X7 = C=CCn1cc(C[C@H](N[*:1])C(=O)[*:2])c2ccccc21; NMeLeu(5-OH,4R) = CN[C@@H](C[C@@H](C)CO)C(=O)O; Phe(βR-OMe) = CO[C@H](c1ccccc1)[C@H](N)C(=O)O; NMeL = CN[C@@H](CC(C)C)C(=O)O

Key:
[1] = system: Mtb ATCC 35825; test: microbe, parasite or virus in culture; format: cell-based
[2] = system: Mtb # 8673; test: microbe, parasite or virus in culture; format: cell-based
[3] = system: Mtb # 11291; test: microbe, parasite or virus in culture; format: cell-based; conditions: for MIC: read-out: MIC Mtb # 11291
[4] = system: Mycobacterium fortuitum; test: microbe, parasite or virus in culture; format: cell-based
[5] = system: Mycobacterium avium; test: microbe, parasite or virus in culture; format: cell-based
[6] = system: Mycobacterium intracellulare; test: microbe, parasite or virus in culture; format: cell-based
[7] = system: Mycobacterium abscessus; test: microbe, parasite or virus in culture; format: cell-based
[8] = format: in vitro ADME, Mice
Procedure: (§1) The kinetics of compound degradation in liver microsomes is assessed in an assay with 1 µmol/l of compound and 0.5 mg/ml liver microsomes in a medium of 100 mM Tris-HCl pH 7.5, 6.5 mM MgCl2 and 1 mM NADPH at 37 °C. The reaction is stopped at multiple time points by adding acetonitrile. After centrifugation, the compound concentration is measured in the supernatants by high-performance liquid chromatography (HPLC) tandem mass spectrometry (MS/MS). The results are fitted to a first-order decay and the half-lives are converted to clearance (stated as % of the liver blood flow (%Qh)) using the well-stirred liver model.

[9] = target: ClpC1 NTD protein (M. tuberculosis) (Mycobacterium tuberculosis, UniProt P9WPC9); test: biochemical; format: binding
Chain of ClpC1 NTD protein (M. tuberculosis) (P9WPC9 1-156, looked up, natural form): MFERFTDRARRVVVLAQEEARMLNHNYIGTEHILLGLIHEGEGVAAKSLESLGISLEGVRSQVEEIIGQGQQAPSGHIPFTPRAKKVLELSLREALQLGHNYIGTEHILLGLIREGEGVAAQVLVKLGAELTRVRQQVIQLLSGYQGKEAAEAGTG

[10] = system: Caco-2 monolayers; test: in vitro
Excerpt: (§2) Supplementary Table 1. Structure-Activity Relationships part 1 (SPR, Caco-2) […]
(§3) SPR. Mean values ± standard deviation. Footnotes indicate the number of measurements performed for the respective compound: a) n = […]
(§4) [5] Permeability across Caco-2 monolayers in P(A−B): apical to basolateral and P(B−A): basolateral to apical direction (values reported in 10-
(§5) 6 cm s-1); efflux ratio = P(B−A)/P(A−B); Int. perm: mean value of P(A−B) and P(B−A). […] Influence of Trp-Nα methylation on P(A-B) and efflux
(§6) ratio. Bold: positive influence.

[11] = in vitro; conditions: human
Excerpt: as §2, §3, §4, §5, §6

[12] = format: in vitro ADME, Rat
Procedure: (§7) Cryopreserved hepatocytes are incubated in an appropriate buffer system containing 50% species serum. Following an acclimation period (15–30 min) in an incubator (37 °C, 5−10% CO2, 85–95% humidity) the test compound is added to the hepatocyte suspension (pH 7.4, typical cell density of about 1 million cells/mL; final concentration of test compound is 1 µM, final DMSO concentration <0.05% v/v). The cells are incubated for up to 6 h and samples are taken at 6 different time points. Samples are then quenched with acetonitrile and pelleted by centrifugation. The remaining amount of parent compound in the supernatants is then analysed by HPLC-MS/MS. Clearance is calculated from compound half-lives using the well-stirred liver model and is converted to clearance stated as % of the liver blood flow (% Qh).

[13] = Hepatocyte stability, mice; format: in vitro ADME
Procedure: as §7

[14] = Microsomal stability, human; format: in vitro ADME
Procedure: as §1

[15] = format: in vitro ADME, Rat; remark: listed apart in the source
Procedure: as §1

[16] = format: in vitro ADME, Human
Procedure: as §7

[17] = Mycobacterium tuberculosis, mean, n = 2 well replicates
[18] = Mycobacterium tuberculosis, single well replicates
[19] = Experiment 2, three replicate columns

Structure (SMILES): CC(=O)Nc1ccc(/C=N/NC(N)=S)cc1 [Thiacetazone]
- MIC ([1]; Mycobacterium tuberculosis, ATCC35825, mean, n = 2 well replicates): 4.2 µM and 1 µg/mL
- MIC ([1]; Mycobacterium tuberculosis, ATCC35825, single well replicates): 1 µg/mL and 4.23 µM
- MIC ([1]; single well replicates): 4.23 µM (≈ 1 µg/mL)
- MIC Mtb ATCC 35825 ([1]; single well replicates): 1 µg/mL (≈ 4.23 µM)
- MIC [2, 17]: > 542 µM and > 128 µg/mL
- MIC [2, 18]: > 542 µM and > 128 µg/mL
- MIC ([2]; single well replicates): >541.68 µM
- MIC Mtb # 8673 ([2]; single well replicates): >128 µg/mL
- MIC [3, 17]: 4.2 µM and 1 µg/mL
- MIC [3, 18]: 4.23 µM and 1 µg/mL
- MIC Mtb # 11291 ([3]; single well replicates): 1 µg/mL (≈ 4.23 µM)
- MIC ([3]; single well replicates): 4.23 µM (≈ 1 µg/mL)

Structure (SMILES): CC[C@H]1OC(=O)[C@H](C)[C@@H](O[C@H]2C[C@@](C)(OC)[C@@H](O)[C@H](C)O2)[C@H](C)[C@@H](O[C@@H]2O[C@H](C)C[C@H](N(C)C)[C@H]2O)[C@](C)(OC)C[C@@H](C)C(=O)[C@H](C)[C@@H](O)[C@]1(C)O [Clarithromycin, reference compound]
- MIC (µg/ml) Mycobacterium fortuitum [4, 19]: 0.50 µg/mL (≈ 0.668 µM)
- MIC ([4]; Experiment 2, three replicate columns, read-out: MIC (µM) Mycobacterium fortuitum): 0.67 µM
- MIC ([4]; Mycolicibacterium fortuitum, Experiment 2, three replicate columns, read-out: MIC (µM) Mycobacterium fortuitum): 0.67 µM
- MIC ([4]; Mycolicibacterium fortuitum, Experiment 2, three replicate columns, read-out: MIC (µg/ml) Mycobacterium fortuitum): 0.5 µg/mL
- MIC ([4]; Mycolicibacterium fortuitum, mean ± SD, read-out: MIC Mycobacterium fortuitum): 0.7 µM
- MIC (µg/ml) Mycobacterium avium [5, 19]: 0.25 µg/mL (≈ 0.334 µM)
- MIC ([5]; Experiment 2, three replicate columns, read-out: MIC (µM) Mycobacterium avium): 0.33 µM
- MIC ([5]; Mycobacterium avium, Experiment 2, three replicate columns, read-out: MIC (µM) Mycobacterium avium): 0.33 µM
- MIC ([5]; Mycobacterium avium, Experiment 2, three replicate columns, read-out: MIC (µg/ml) Mycobacterium avium): 0.25 µg/mL
- MIC ([5]; Mycobacterium avium, mean ± SD, read-out: MIC Mycobacterium avium): 0.3 µM
- MIC (µg/ml) Mycobacterium intracellulare [6, 19]: 0.13 µg/mL (≈ 0.174 µM)
- MIC ([6]; Experiment 2, three replicate columns, read-out: MIC (µM) Mycobacterium intracellulare): 0.17 µM
- MIC ([6]; Mycobacterium intracellulare, Experiment 2, three replicate columns, read-out: MIC (µM) Mycobacterium intracellulare): 0.17 µM
- MIC ([6]; Mycobacterium intracellulare, Experiment 2, three replicate columns, read-out: MIC (µg/ml) Mycobacterium intracellulare): 0.13 µg/mL
- MIC ([6]; Mycobacterium intracellulare, mean ± SD, read-out: MIC Mycobacterium intracellulare): 0.2 µM
- MIC (µg/ml) Mycobacterium abscessus [7, 19]: 0.50 µg/mL (≈ 0.668 µM)
- MIC ([7]; Experiment 2, three replicate columns, read-out: MIC (µM) Mycobacterium abscessus): 0.67 µM
- MIC ([7]; Mycobacteroides abscessus, Experiment 2, three replicate columns, read-out: MIC (µM) Mycobacterium abscessus): 0.67 µM
- MIC ([7]; Mycobacteroides abscessus, Experiment 2, three replicate columns, read-out: MIC (µg/ml) Mycobacterium abscessus): 0.5 µg/mL
- MIC ([7]; Mycobacteroides abscessus, mean ± SD, read-out: MIC Mycobacterium abscessus): 0.7 µM

Structure (SMILES): C=CCn1cc(C[C@@H]2NC(=O)[C@H](C(C)C)NC(=O)[C@H](CC(C)C)N(C)C(=O)[C@H](C(C)C)NC(=O)[C@H]([C@H](OC)c3ccccc3)NC(=O)[C@H](C)NC(=O)[C@H](C[C@@H](C)CO)N(C)C2=O)c2ccccc21 [Compound 13] (cyclo(A[Phe(βR-OMe)]V[NMeL]V[X7][NMeLeu(5-OH,4R)]))
- Microsomal Stability Mouse QH ([8]; Mouse): >88.400%
- Microsomal Stability Mice ([8]; clearance in microsomes): > 88 %Qh
- Kd ([9]; SPR (Supplementary Table 1), read-out: KD ClpC1-NTD Mean ± SD): 3.6 ± 0.2 nM
- koff ClpC1-NTD ([9]; SPR, single independent measurements): 0.1 s⁻¹
- Kd ([9]; SPR, single independent measurements, read-out: KD ClpC1-NTD): 3.66 nM and 3.44 nM
- koff ([9]; SPR, single independent measurements, read-out: koff ClpC1-NTD): 0.07 s⁻¹
- CACO permeability PEAB ([10]; apical to basolateral): 0.0000024 cm/s
- CACO permeability PEBA ([10]; basolateral to apical): 0.000018999999999999998 cm/s
- Caco-2 Int. Perm ([10]; mean value of P(A−B) and P(B−A)): 10.7 10-6 cm s-1
- efflux ratio ([11]; Caco-2): 7.9
- Papp A→B ([11]; Caco-2, CACO permeability PEAB, apical to basolateral): 4.5 ×10⁻⁶ cm/s
- Papp B→A ([11]; Caco-2, CACO permeability PEBA, basolateral to apical): 33 ×10⁻⁶ cm/s
- Hepatocyte Stability Rat QH ([12]; Rat): 65.282%
- Hepatocyte Rat ([12]; clearance in hepatocytes): 65 %Qh
- Hepatocyte Stability Mouse QH ([13]; Mouse): 58.852%
- Hepatocyte Mice ([13]; clearance in hepatocytes): 59 %Qh
- Microsomal Stability Human QH ([14]; Human): >88.400%
- Microsomal Stability Human ([14]; clearance in microsomes): > 88 %Qh
- Microsomal Stability Rat QH ([15]; Rat): >87.900%
- Microsomal Stability Rat ([15]; clearance in microsomes): > 88 %Qh
- Hepatocyte Stability Human QH ([16]; Human): 18.968%
- Hepatocyte Human ([16]; clearance in hepatocytes): 19 %Qh
